This is an account of results in PMC4774911, “Biochemical Screening of Five Protein Kinases from Plasmodium falciparum against 14,000 Cell-Active Compounds” (PLoS ONE, 2016).

Structures are written as SMILES. Where “and” joins values, the source holds several entries; their conditions need not be identical. Equal values may be shown once. Bounds are passed on as bounds.

In assay [1] the target is ABL1 (Homo sapiens, UniProt P00519).
Assay [2] addresses T1, ADCK1 (Homo sapiens, UniProt Q86TW2).
T1 sequence (Q86TW2 1-530): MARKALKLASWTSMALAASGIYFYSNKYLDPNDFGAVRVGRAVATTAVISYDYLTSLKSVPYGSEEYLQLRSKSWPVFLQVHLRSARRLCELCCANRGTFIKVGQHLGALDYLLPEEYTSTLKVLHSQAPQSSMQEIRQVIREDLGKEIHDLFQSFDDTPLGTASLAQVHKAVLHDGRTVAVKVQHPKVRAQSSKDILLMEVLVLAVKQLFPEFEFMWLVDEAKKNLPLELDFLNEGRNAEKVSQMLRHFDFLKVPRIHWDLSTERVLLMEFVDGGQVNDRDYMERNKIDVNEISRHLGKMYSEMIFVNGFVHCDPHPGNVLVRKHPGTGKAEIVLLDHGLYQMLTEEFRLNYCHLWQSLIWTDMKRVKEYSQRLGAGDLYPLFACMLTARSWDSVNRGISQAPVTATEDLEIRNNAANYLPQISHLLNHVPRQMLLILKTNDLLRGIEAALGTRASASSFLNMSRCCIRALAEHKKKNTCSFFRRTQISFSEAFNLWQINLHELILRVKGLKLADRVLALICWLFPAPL
In words: biochemical. On the set-up: endogenous in cells; host or cells: K562 cell extract; species or system K562 (extract); replicate k of n = 2 (each experiment ID is one independent experiment; two experiment IDs per compound). Conditions: read-out: KDapp.

Assay [3] deals with AURKB (Homo sapiens, UniProt Q96GD4). The assay is described as follows: biochemical. On the set-up: endogenous in cells; host or cells: K562 cell extract; species or system K562 (extract); replicate k of n = 2 (each experiment ID is one independent experiment; two experiment IDs per compound). Conditions: read-out: KDapp.
Chain of AURKB (Q96GD4 whole entry): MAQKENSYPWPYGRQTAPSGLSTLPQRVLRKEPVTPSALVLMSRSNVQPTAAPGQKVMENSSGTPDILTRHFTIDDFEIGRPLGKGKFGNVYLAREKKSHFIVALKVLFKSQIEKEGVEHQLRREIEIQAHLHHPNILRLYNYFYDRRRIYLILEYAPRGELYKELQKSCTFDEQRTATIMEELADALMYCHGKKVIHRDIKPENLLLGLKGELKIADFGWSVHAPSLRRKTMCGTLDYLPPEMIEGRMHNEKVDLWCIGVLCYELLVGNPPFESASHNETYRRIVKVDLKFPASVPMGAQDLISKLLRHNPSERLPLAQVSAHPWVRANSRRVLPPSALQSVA
In assay [4] the target is CDK9 (Homo sapiens, UniProt P50750). The assay is described as follows: biochemical. Conditions: read-out: KDapp. On the set-up: endogenous in cells; host or cells: K562 cell extract; species or system K562 (extract); replicate k of n = 2 (each experiment ID is one independent experiment; two experiment IDs per compound).
Chain of CDK9 (P50750 whole entry): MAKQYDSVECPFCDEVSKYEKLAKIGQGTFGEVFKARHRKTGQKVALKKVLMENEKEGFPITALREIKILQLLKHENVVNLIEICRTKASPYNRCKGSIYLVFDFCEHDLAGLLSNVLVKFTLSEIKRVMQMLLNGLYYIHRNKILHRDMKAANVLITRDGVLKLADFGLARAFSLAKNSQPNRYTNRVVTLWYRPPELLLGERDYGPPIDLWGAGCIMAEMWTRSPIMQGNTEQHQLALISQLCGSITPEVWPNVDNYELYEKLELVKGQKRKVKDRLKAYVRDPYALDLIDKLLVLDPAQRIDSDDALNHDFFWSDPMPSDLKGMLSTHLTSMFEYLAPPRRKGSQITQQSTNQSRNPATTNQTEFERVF
Assay [5] deals with CSNK1E (Homo sapiens, UniProt P49674). In words: biochemical. On the set-up: endogenous in cells; host or cells: K562 cell extract; species or system K562 (extract); replicate k of n = 2 (each experiment ID is one independent experiment; two experiment IDs per compound). Conditions: read-out: KDapp.
Assay [6] concerns the target DYRK1A (Homo sapiens, UniProt Q13627). The assay is described as follows: biochemical. On the set-up: endogenous in cells; host or cells: K562 cell extract; species or system K562 (extract); replicate k of n = 2 (each experiment ID is one independent experiment; two experiment IDs per compound). Conditions: read-out: KDapp.
Assay [7] deals with EIF2AK4 (Homo sapiens, UniProt Q9P2K8). The assay is described as follows: biochemical. On the set-up: endogenous in cells; host or cells: K562 cell extract; species or system K562 (extract); replicate k of n = 2 (each experiment ID is one independent experiment; two experiment IDs per compound). Conditions: read-out: KDapp.
Assay [8] addresses FYN (Homo sapiens, UniProt P06241). The assay is described as follows: biochemical. On the set-up: endogenous in cells; host or cells: K562 cell extract; species or system K562 (extract); replicate k of n = 2 (each experiment ID is one independent experiment; two experiment IDs per compound). Conditions: read-out: KDapp.
In assay [9] the target is KIAA0999 (Homo sapiens, UniProt Q9Y2K2). The assay is described as follows: biochemical. On the set-up: endogenous in cells; host or cells: K562 cell extract; species or system K562 (extract); replicate k of n = 2 (each experiment ID is one independent experiment; two experiment IDs per compound). Conditions: read-out: KDapp.
Chain of KIAA0999 (Q9Y2K2 whole entry): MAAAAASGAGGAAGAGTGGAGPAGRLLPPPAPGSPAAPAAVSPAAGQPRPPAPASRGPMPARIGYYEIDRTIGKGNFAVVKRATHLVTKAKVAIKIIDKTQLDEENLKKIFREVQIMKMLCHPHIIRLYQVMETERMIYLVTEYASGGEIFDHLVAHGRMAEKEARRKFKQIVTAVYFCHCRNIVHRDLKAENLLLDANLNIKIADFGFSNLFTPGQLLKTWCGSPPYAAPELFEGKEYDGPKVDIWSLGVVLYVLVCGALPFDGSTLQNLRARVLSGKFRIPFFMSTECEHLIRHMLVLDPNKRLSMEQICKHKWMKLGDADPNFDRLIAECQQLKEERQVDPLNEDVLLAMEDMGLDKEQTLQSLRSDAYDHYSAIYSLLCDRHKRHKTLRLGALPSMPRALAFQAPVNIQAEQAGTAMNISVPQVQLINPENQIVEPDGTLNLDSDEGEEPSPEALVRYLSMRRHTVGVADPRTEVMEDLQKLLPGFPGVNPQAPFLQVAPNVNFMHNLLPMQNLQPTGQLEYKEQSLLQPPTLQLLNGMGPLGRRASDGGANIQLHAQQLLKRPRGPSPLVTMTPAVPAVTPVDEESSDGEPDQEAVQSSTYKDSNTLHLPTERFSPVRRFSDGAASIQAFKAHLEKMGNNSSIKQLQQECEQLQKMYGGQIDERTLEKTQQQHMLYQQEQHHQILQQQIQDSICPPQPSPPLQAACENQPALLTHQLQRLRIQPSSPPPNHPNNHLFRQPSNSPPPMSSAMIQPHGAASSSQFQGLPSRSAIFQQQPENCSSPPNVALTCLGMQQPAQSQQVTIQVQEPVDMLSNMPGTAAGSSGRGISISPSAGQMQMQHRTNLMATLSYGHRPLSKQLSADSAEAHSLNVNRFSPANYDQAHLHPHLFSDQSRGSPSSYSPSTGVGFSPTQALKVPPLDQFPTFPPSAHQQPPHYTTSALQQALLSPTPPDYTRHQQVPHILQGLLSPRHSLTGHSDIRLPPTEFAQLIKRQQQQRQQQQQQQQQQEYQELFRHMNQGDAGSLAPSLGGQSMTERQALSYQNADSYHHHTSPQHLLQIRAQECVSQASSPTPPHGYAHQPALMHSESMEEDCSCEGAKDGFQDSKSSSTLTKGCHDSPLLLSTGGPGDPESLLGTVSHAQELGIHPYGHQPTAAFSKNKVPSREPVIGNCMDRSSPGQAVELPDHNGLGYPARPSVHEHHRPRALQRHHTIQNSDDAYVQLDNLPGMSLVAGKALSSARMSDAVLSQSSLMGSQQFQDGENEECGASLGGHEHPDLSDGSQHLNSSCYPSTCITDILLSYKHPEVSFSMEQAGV
Assay [10] has as its target MAPK7 (Homo sapiens, UniProt Q13164). In words: biochemical. On the set-up: endogenous in cells; host or cells: K562 cell extract; species or system K562 (extract); replicate k of n = 2 (each experiment ID is one independent experiment; two experiment IDs per compound). Conditions: read-out: KDapp.
Assay [11] concerns the target MAPK9 (Homo sapiens, UniProt P45984). The assay is described as follows: biochemical. On the set-up: endogenous in cells; host or cells: K562 cell extract; species or system K562 (extract); replicate k of n = 2 (each experiment ID is one independent experiment; two experiment IDs per compound). Conditions: read-out: KDapp.
Assay [12] addresses MARK3 (Homo sapiens, UniProt P27448). The assay is described as follows: biochemical. On the set-up: endogenous in cells; host or cells: K562 cell extract; species or system K562 (extract); replicate k of n = 2 (each experiment ID is one independent experiment; two experiment IDs per compound). Conditions: read-out: KDapp.
Assay [13] has as its target PCTK2 (Homo sapiens, UniProt Q00537). In words: biochemical. On the set-up: endogenous in cells; host or cells: K562 cell extract; species or system K562 (extract); replicate k of n = 2 (each experiment ID is one independent experiment; two experiment IDs per compound). Conditions: read-out: KDapp.
The target in assay [14] is SRC (Homo sapiens, UniProt P12931). In words: biochemical. On the set-up: endogenous in cells; host or cells: K562 cell extract; species or system K562 (extract); replicate k of n = 2 (each experiment ID is one independent experiment; two experiment IDs per compound). Conditions: read-out: KDapp.
Chain of SRC (P12931 whole entry): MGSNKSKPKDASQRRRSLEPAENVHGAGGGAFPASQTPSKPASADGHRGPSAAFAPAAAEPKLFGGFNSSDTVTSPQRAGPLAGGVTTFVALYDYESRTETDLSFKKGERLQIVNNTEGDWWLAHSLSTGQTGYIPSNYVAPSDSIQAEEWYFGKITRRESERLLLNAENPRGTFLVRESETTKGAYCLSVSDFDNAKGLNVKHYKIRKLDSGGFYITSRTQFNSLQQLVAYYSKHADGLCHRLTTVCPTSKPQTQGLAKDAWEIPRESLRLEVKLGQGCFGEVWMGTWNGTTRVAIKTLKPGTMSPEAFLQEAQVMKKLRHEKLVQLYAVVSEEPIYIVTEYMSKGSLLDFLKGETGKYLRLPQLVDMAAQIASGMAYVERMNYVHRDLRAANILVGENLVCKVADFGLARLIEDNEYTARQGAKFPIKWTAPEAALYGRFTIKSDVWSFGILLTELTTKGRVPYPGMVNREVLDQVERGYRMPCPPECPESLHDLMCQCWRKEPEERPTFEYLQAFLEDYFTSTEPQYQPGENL
Assay [15] has as its system 3D7 PFLDH. On the set-up: method as in F.J. Gamo et al., Nature 2010. Conditions: downloaded from ChEMBL ref F.J. Gamo et al., Nature 2010; cited from earlier work.
Assay [16] deals with TNK2 (Homo sapiens, UniProt Q07912). In words: Kinobead competition assay in K562 extract: TNK2.
Method: Kinobeads were prepared as described [25, 26]. […] Briefly, Kinobeads were washed and equilibrated in lysis buffer (50 mM Tris-Cl, pH 7.4, 0.4% Igepal-CA630, 1.5 mM MgCl2, 5% Glycerol, 150 mM NaCl, 25 mM NaF, 1 mM Na3VO4, 1 mM DTT, and 1 complete EDTA-free protease inhibitor tablet (Roche) per 25 ml). […] Digestion, labeling with TMT isobaric mass tags, peptide fractionation, and mass spectrometric analyses were performed essentially as described [27]. Criteria for protein quantification were: a minimum of 2 sequence assignments matching to unique peptides was required (FDR for quantified proteins <<0.1%), Mascot ion score > 15, signal to background ratio of the precursor ion > 4, signal to interference > 0.5 [28]. Reporter ion intensities were multiplied by ion accumulation time, yielding an area value proportional to the number of reporter ions present in the mass analyzer. Peptide fold changes were corrected for isotope purity as described and adjusted for interference caused by co-eluting nearly isobaric peaks as estimated by the signal-to-interference measure [29]. Protein quantification was achieved using a sum-based bootstrap algorithm [30]. Apparent dissociation constants were determined by taking into account the protein depletion by the beads as described [27].
Kinobeads were incubated with K562 cell extract either in the presence of vehicle (DMSO) or TCAMS compound, respectively (20 μM-0.03 μM). Protein kinases captured by the beads (140–150 kinases per experiment) were quantified following tryptic digestion, isobaric peptide tagging, and LC-MS/MS analysis. Kinases were identified as potential targets by virtue of their reduced capture in the presence of excess TCAMS compounds. Apparent dissociation constants (Kd’s) were calculated from the extent to which capture of each kinase was reduced at each compound concentration.
Setting [17] is: TNK2, K-562 extract, conc. series 20.0-0.0uM, channel assignment not given.

Chain of FYN (P06241 whole entry): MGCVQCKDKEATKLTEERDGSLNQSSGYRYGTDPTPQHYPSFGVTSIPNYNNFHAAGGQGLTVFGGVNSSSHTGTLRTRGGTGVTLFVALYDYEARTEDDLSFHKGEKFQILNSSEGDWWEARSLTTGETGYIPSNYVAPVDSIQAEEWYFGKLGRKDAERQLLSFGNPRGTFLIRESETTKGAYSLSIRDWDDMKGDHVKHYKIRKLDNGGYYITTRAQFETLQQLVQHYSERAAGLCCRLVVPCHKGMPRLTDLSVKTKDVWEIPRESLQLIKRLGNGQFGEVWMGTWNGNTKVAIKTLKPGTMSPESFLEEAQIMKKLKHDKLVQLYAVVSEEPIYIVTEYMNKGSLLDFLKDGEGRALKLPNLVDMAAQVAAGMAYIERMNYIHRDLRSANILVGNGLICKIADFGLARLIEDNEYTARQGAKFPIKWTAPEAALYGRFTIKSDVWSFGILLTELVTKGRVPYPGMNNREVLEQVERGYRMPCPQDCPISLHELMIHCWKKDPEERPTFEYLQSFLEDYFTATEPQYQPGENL
Chain of MARK3 (P27448 whole entry): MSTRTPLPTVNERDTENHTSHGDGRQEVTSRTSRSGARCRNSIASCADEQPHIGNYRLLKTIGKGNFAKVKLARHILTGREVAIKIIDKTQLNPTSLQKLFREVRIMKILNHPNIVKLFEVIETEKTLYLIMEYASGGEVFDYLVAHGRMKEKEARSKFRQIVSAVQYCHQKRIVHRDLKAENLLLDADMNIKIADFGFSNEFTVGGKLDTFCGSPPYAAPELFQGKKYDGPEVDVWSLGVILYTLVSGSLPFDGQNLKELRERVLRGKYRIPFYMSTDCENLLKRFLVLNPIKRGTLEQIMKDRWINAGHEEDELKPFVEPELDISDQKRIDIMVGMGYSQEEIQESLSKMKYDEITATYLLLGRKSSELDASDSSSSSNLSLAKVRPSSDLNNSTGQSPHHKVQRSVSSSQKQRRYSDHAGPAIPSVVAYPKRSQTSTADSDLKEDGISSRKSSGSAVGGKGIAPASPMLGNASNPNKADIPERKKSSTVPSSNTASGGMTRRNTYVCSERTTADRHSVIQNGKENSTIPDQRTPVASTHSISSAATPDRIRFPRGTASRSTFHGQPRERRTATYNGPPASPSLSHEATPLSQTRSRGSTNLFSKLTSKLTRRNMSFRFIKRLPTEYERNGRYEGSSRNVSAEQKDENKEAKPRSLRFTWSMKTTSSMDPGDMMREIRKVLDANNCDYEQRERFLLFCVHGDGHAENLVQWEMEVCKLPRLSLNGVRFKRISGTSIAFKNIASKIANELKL
Chain of PCTK2 (Q00537 whole entry): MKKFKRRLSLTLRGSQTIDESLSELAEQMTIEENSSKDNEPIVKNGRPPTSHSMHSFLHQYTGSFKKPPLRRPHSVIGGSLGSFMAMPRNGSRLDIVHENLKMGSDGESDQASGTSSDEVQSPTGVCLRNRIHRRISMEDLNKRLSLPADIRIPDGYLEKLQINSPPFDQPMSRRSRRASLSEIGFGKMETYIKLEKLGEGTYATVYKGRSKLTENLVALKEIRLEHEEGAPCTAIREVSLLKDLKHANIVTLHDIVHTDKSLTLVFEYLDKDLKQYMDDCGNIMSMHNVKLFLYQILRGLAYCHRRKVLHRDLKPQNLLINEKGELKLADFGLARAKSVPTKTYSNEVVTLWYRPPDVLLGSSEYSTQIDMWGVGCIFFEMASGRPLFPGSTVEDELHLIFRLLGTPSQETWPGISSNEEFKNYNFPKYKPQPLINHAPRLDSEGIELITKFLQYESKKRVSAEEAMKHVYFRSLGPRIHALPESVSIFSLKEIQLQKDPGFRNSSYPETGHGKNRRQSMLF
Chain of MAPK9 (P45984 whole entry): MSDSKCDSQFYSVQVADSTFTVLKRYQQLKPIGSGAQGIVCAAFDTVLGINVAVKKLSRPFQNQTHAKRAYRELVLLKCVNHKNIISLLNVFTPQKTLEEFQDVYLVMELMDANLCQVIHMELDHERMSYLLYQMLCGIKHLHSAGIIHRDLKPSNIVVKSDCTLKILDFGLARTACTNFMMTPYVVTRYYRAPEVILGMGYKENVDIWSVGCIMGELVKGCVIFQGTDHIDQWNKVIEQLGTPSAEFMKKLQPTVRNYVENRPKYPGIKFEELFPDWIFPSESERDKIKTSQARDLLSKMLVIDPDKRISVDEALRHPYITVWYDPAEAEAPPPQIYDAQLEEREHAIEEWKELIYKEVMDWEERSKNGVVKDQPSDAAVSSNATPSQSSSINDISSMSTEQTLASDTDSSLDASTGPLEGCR

One may read the IC50 as the concentration that gives 50% inhibition. Low readings indicate greater potency in that assay, high ones weaker potency in that assay. In assay [1], `CN1CCN(c2ccc(Nc3ncc(C#N)c(Nc4ccccc4C(N)=O)n3)cc2)CC1.Cl` [TCMDC-134116] yielded an IC50 of 130 nM. In addition, the Kd was 654 nM in assay [2]; 14.3 nM and 22.8 nM in [3]; 576 nM and 393 nM in assay [4]; 1100 nM and 2810 nM in assay [5]; 286 nM and 263 nM in assay [6]; 168 nM and 147 nM in [7]. The Kd in assay [8] was 107 nM and 85.4 nM; in [9] it was 214 nM and 153 nM; in assay [10] it was 140 nM and 190 nM; in [11], 230 nM and 209 nM; in assay [12] it was 66.6 nM and 77.7 nM; in assay [13], 57.7 nM and 83.5 nM. Moreover, the Kd in assay [14] is 184 nM and 157 nM.

In the case of `Cl.NCC1(c2nc(-c3ccc(Cl)c(O)c3)c(-c3ccncc3)[nH]2)CCCCC1` [TCMDC-141154], the PCT_INHIB_3D7_PFLDH in assay [15] is given as 0. The same compound came in with an IC50 in assay [16] of more than 20000 nM. The “abundance relative to vehicle TMT126” value in [16] (TNK2, K-562 extract, conc. series 20.0, 4.0, 0.8, 0.16, 0.032, 0.0uM, channel assignment not given) worked out at 0.90. The “abundance relative to vehicle TMT127L” value in [16] (setting [17]) worked out at 1.02. Also, the “abundance relative to vehicle TMT128H” value in [16] (setting [17]) came out at 1.06. The “abundance relative to vehicle TMT129L” value in assay [16] (setting [17]) is on record as 1.03. The “abundance relative to vehicle TMT130H” value in assay [16] (setting [17]) is given as 1.20. In assay [16] (TNK2, kinobead competition curve), this compound yielded a Hill of 1. The Kd was 226 nM in assay [5]; 67.6 nM and 60.5 nM in assay [8]; 40.3 nM and 31.2 nM in assay [9]; 549 nM and 949 nM in assay [10]; 355 nM in assay [11]; 111 nM in assay [14].

For the compound `CN(C)CC(O)COc1ccc(Nc2ncc([N+](=O)[O-])c(Nc3ccccc3O)n2)cc1.O=C(O)C(F)(F)F` (centres unmarked) [TCMDC-141399], the Kd in [2] is 1180 nM; in assay [3], 1500 nM; in assay [4], 2780 nM and 3820 nM; in assay [6], 2860 nM; in [7] it was 182 nM and 245 nM; in [12], 5550 nM and 3660 nM. Also, the Kd in assay [13] is 1140 nM and 1060 nM.
